Laboratory results reported in US9873680B2 (Gilead Sciences, Inc., priority 2014, dated 2018).
Where a name gives a salt, the structure may show the parent alone. Read-outs that look alike come from different tables or passages of the source.

Assays:
HIV-IIIb = experiment: Test A: Antiviral Assay in MT4 Cells; type: cell-based, HIV-1; settings: read-out: % inhibition at 0.2 μM (percent inhibition of virus-induced cell killing)
How it was run: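 MT-4 cells were preinfected with HIV-IIIb […]. Cell viability, as protection from viral cytopathic effect, was read by CellTiter-Glo chemiluminescence.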

[1] = Test B: Cytotoxicity Assay; type: cell-based; settings: human, uninfected MT-4 cells, CellTiter-Glo
Protocol: Test B: Cytotoxicity Assay Compound cytotoxicity and the corresponding CC50 values was determined using the same protocol as described in the antiviral assay (Test A) except that uninfected cells were used.

[2] = Human immunodeficiency virus 1, MT4, 120 h, 0.2 μM drug concentration, MT-4 cells infected with HIV-IIIb, 5 days, values normalized to 100%, average over time
[3] = Human immunodeficiency virus 1, IIIB, MT4, 120 h

## Cn1nc(NS(C)(=O)=O)c2c(Cl)ccc(-c3ccc(C#CC4CNCCO4)nc3[C@H](Cc3cc(F)cc(F)c3)NC(=O)Cn3nc(C(F)F)c4c3C(F)(F)[C@@H]3C[C@H]43)c21 (stereo partly drawn) [Compound 68, N-((1S)-1-(3-(4-chloro-1-methyl-3-(methylsulfonamido)-1H-indazol-7-yl)-6-(morpholin-2-ylethynyl)pyridin-2-yl)-2-(3,5-difluorophenyl)ethyl)-2-((3bS,4aR)-3-(difluoromethyl)-5,5-difluoro-3b,4,4a,5-tetrahydro-1H-cyclopropa[3,4]cyclopenta[1,2-c]pyrazol-1-yl)acetamide]
HIV-IIIb; [2]
  inhibition at 0.2 µM: 100%
[1]
  CC50 at 5 days: 7.51 µM

## CN1CCN(C(C)(C)C#Cc2ccc(-c3ccc(Cl)c4c(NS(C)(=O)=O)nn(C)c34)c([C@H](Cc3cc(F)cc(F)c3)NC(=O)Cn3nc(C(F)(F)F)c4c3C(F)(F)[C@@H]3C[C@H]43)n2)CC1 [Compound 41, N—((S)-1-(3-(4-chloro-1-methyl-3-(methylsulfonamido)-1H-indazol-7-yl)-6-(3-methyl-3-(4-methylpiperazin-1-yl)but-1-yn-1-yl)pyridin-2-yl)-2-(3,5-difluorophenyl)ethyl)-2-((3bS,4aR)-5,5-difluoro-3-(trifluoromethyl)-3b,4,4a,5-tetrahydro-1H-cyclopropa[3,4]cyclopenta[1,2-c]pyrazol-1-yl)acetamide]
HIV-IIIb; [2]
  inhibition at 0.2 µM: 98%
[1]
  CC50 at 5 days: 2.08 µM

## CN1CCN(CC#Cc2ccc(-c3ccc(Cl)c4c(NS(C)(=O)=O)nn(C)c34)c([C@H](Cc3cc(F)cc(F)c3)NC(=O)Cn3nc(C(F)(F)F)c4c3C(F)(F)[C@@H]3C[C@H]43)n2)CC1 [Compound 47, N—((S)-1-(3-(4-chloro-1-methyl-3-(methylsulfonamido)-1H-indazol-7-yl)-6-(3-(4-methylpiperazin-1-yl)prop-1-yn-1-yl)pyridin-2-yl)-2-(3,5-difluorophenyl)ethyl)-2-((3bS,4aR)-5,5-difluoro-3-(trifluoromethyl)-3b,4,4a,5-tetrahydro-1H-cyclopropa[3,4]cyclopenta[1,2-c]pyrazol-1-yl)acetamide]
HIV-IIIb; [2]
  inhibition at 0.2 µM: 94%
[1]
  CC50 at 5 days: 7.97 µM

## O=C(Cn1nc(C(F)F)c2c1C(F)(F)CCC2(F)F)N[C@@H](Cc1cc(F)cc(F)c1)c1nc(C#Cc2cncnc2)ccc1-c1ccc2c(c1)C(=O)NC2 [Compound 1J, (S)-2-(3-(difluoromethyl)-4,4,7,7-tetrafluoro-4,5,6,7-tetrahydro-1H-indazol-1-yl)-N-(2-(3,5-difluorophenyl)-1-(3-(3-oxoisoindolin-5-yl)-6-(pyrimidin-5-ylethynyl)pyridin-2-yl)ethyl)acetamidehydrochloride]
HIV-IIIb; [2]
  inhibition at 0.2 µM: 81%
[1]
  CC50 at 5 days: > 53.2 µM

## Cn1nc(NS(C)(=O)=O)c2c(Cl)ccc(-c3ccc(C#CC4(O)CC(F)(F)C4)nc3[C@H](Cc3cccc(F)c3)NC(=O)Cn3nc(C(F)F)c4c3C(F)(F)[C@@H]3C[C@H]43)c21 [Compound 101H, N—((S)-1-(3-(4-chloro-1-methyl-3-(methylsulfonamido)-1H-indazol-7-yl)-6-((3,3-difluoro-1-hydroxycyclobutyl)ethynyl)pyridin-2-yl)-2-(3-fluorophenyl)ethyl)-2-((3bS,4aR)-3-(difluoromethyl)-5,5-difluoro-3b,4,4a,5-tetrahydro-1H-cyclopropa[3,4]cyclopenta[1,2-c]pyrazol-1-yl)acetamide]
HIV-IIIb; [2]
  inhibition at 0.2 µM: 91%
[1]
  CC50 at 5 days: 9.1 µM

## Cn1nc(NS(C)(=O)=O)c2c(Cl)ccc(-c3ccc(C#CC(O)C4CNC4)nc3[C@H](Cc3cc(F)cc(F)c3)NC(=O)Cn3nc(C(F)(F)F)c4c3C(F)(F)[C@@H]3C[C@H]43)c21 (stereo partly drawn) [Compound 65, N-((1S)-1-(6-(3-(azetidin-3-yl)-3-hydroxyprop-1-yn-1-yl)-3-(4-chloro-1-methyl-3-(methylsulfonamido)-1H-indazol-7-yl)pyridin-2-yl)-2-(3,5-difluorophenyl)ethyl)-2-((3bS,4aR)-5,5-difluoro-3-(trifluoromethyl)-3b,4,4a,5-tetrahydro-1H-cyclopropa[3,4]cyclopenta[1,2-c]pyrazol-1-yl)acetamide]
HIV-IIIb; [2]
  inhibition at 0.2 µM: 37%
[1]
  CC50 at 5 days: 19.3 µM

## Cn1nc(O)c2c(Cl)ccc(-c3ccc(C#CC4(O)CCOCC4)nc3[C@H](Cc3cc(F)cc(F)c3)NC(=O)Cn3nc(C(F)(F)F)c4c3CCCC4)c21 [Compound 57, (S)—N-(1-(3-(4-chloro-3-hydroxy-1-methyl-1H-indazol-7-yl)-6-((4-hydroxytetrahydro-2H-pyran-4-yl)ethynyl)pyridin-2-yl)-2-(3,5-difluorophenyl)ethyl)-2-(3-(trifluoromethyl)-4,5,6,7-tetrahydro-1H-indazol-1-yl)acetamide]
HIV-IIIb; [3]
  inhibition at 0.2 µM: 100%
[1]
  CC50 at 5 days: 21 µM

## Cn1nc(NS(C)(=O)=O)c2c(Cl)ccc(-c3ccc(C#CC(C)(C)n4ccnc4)nc3[C@H](Cc3cc(F)cc(F)c3)NC(=O)Cn3nc(C(F)(F)F)c4c3C(F)(F)[C@@H]3C[C@H]43)c21 [Compound 79B, N—((S)-1-(6-(3-(1H-imidazol-1-yl)-3-methylbut-1-yn-1-yl)-3-(4-chloro-1-methyl-3-(methylsulfonamido)-1H-indazol-7-yl)pyridin-2-yl)-2-(3,5-difluorophenyl)ethyl)-2-((3bS,4aR)-5,5-difluoro-3-(trifluoromethyl)-3b,4,4a,5-tetrahydro-1H-cyclopropa[3,4]cyclopenta[1,2-c]pyrazol-1-yl)acetamide]
HIV-IIIb; [2]
  inhibition at 0.2 µM: 93%
[1]
  CC50 at 5 days: 11.5 µM

## Cn1nc(NS(C)(=O)=O)c2c(Cl)ccc(-c3ccc(C#CC4(C)CNCCO4)nc3[C@H](Cc3cc(F)cc(F)c3)NC(=O)Cn3nc(C(F)(F)F)c4c3C(F)(F)[C@@H]3C[C@H]43)c21 (stereo partly drawn) [Compound 76, N-((1S)-1-(3-(4-chloro-1-methyl-3-(methylsulfonamido)-1H-indazol-7-yl)-6-((2-methylmorpholin-2-yl)ethynyl)pyridin-2-yl)-2-(3,5-difluorophenyl)ethyl)-2-((3bS,4aR)-5,5-difluoro-3-(trifluoromethyl)-3b,4,4a,5-tetrahydro-1H-cyclopropa[3,4]cyclopenta[1,2-c]pyrazol-1-yl)acetamide]
HIV-IIIb; [2]
  inhibition at 0.2 µM: 93%
[1]
  CC50 at 5 days: 6.67 µM

## Cn1nc(NS(C)(=O)=O)c2c(Cl)ccc(-c3ccc(C#CC(C)(O)c4ccco4)nc3[C@H](Cc3cc(F)cc(F)c3)NC(=O)Cn3nc(C(F)(F)F)c4c3C(F)(F)[C@@H]3C[C@H]43)c21 (stereo partly drawn) [Compound 54, N-((1S)-1-(3-(4-chloro-1-methyl-3-(methylsulfonamido)-1H-indazol-7-yl)-6-(3-(furan-2-yl)-3-hydroxybut-1-yn-1-yl)pyridin-2-yl)-2-(3,5-difluorophenyl)ethyl)-2-((3bS,4aR)-5,5-difluoro-3-(trifluoromethyl)-3b,4,4a,5-tetrahydro-1H-cyclopropa[3,4]cyclopenta[1,2-c]pyrazol-1-yl)acetamide]
HIV-IIIb; [2]
  inhibition at 0.2 µM: 100%
[1]
  CC50 at 5 days: 11.6 µM

## O=C(Cn1nc(C(F)F)c2c1C(F)(F)CCC2(F)F)N[C@@H](Cc1cc(F)cc(F)c1)c1nc(C#Cc2cncnc2)ncc1-c1ccc2c(c1)C(=O)NC2 [Compound 7H]
HIV-IIIb; [3]
  inhibition at 0.2 µM: 94%
[1]
  CC50 at 5 days: 0.534 µM
